From ChEMBL document CHEMBL1201862, “PubChem BioAssay data set” (2004)
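Values below derive from 48-hour exposures of cells grown in 96-well plates, with endpoints linearly interpolated between the two concentrations bracketing the appropriate inhibition level. At the GI50, growth is halved.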 The source made the active and inactive calls. Rule as the data show it: active = GI50 up to about 1.1 µM and inactive = higher.

Legend:
Experiment in all cases: inhibition of tumour cell growth, NCI panel, 48 h
786-0 = tested on: 786-0
A498 = tested on: A498
BT-549 = tested on: BT-549
EKVX = tested on: EKVX
HCT-116 = tested on: HCT-116
HOP-62 = tested on: HOP-62
K562 = tested on: K562
KM12 = tested on: KM12
LOX IMVI = tested on: LOX IMVI
MCF7 = tested on: MCF7
Malme-3M = tested on: Malme-3M
NCI-H460 = tested on: NCI-H460
NCI-H522 = tested on: NCI-H522
NCI/ADR-RES = tested on: NCI/ADR-RES
OVCAR-4 = tested on: OVCAR-4
PC-3 = tested on: PC-3
SF-295 = tested on: SF-295
SK-MEL-2 = tested on: SK-MEL-2
SNB-19 = tested on: SNB-19
HOP-92 = tested on: HOP-92

For `CC(=O)OCC(OC(C)=O)C(OC(C)=O)C(OC(C)=O)C(C=NN(C(C)=O)S(=O)(=O)c1ccc(/C=C2\NC(=O)N(C)C2=O)cc1)OC(C)=O` (stereo not drawn), the GI50 (786-0) was 22.1 µM (inactive), the GI50 (A498) was 59.7 µM (inactive) and the GI50 (BT-549) was 33.9 µM (inactive). The GI50 (EKVX) was 43 µM (inactive), the GI50 (HCT-116) was 16.9 µM (inactive) and the GI50 (HOP-62) was 85.1 µM (inactive). For the same compound, the GI50 (K562) was 21.4 µM (inactive), the GI50 (KM12) was 42.4 µM (inactive) and the GI50 (LOX IMVI) was 21.8 µM (inactive). For the same compound, the GI50 (MCF7) was 40.1 µM (inactive), the GI50 (Malme-3M) was 25.5 µM (inactive) and the GI50 (NCI-H460) was 22.1 µM (inactive). For the same compound, the GI50 (NCI-H522) was 23.7 µM (inactive), the GI50 (NCI/ADR-RES) was > 100 µM (inactive) and the GI50 (OVCAR-4) was 53.5 µM (inactive). The GI50 (PC-3) was 40.1 µM (inactive), the GI50 (SF-295) was 95.9 µM (inactive) and the GI50 (SK-MEL-2) was 31.5 µM (inactive). For the same compound, the GI50 (SNB-19) was 45 µM (inactive).
With `O=C1Nc2ccccc2/C1=C1/Nc2ccccc2/C1=N\OCCOC1OCC(O)C(O)C1O` (stereo not drawn) the GI50 (786-0) was > 100 µM (inactive), the GI50 (BT-549) was > 100 µM (inactive) and the GI50 (EKVX) was > 100 µM (inactive). The GI50 (HCT-116) was 32.8 µM (inactive), the GI50 (HOP-62) was 6.38 µM (inactive) and the GI50 (HOP-92) was > 100 µM (inactive). The GI50 (K562) was > 100 µM (inactive), the GI50 (KM12) was 0.453 µM (active) and the GI50 (LOX IMVI) was 8.59 µM (inactive). The GI50 (MCF7) was 53.2 µM (inactive), the GI50 (Malme-3M) was > 100 µM (inactive) and the GI50 (NCI-H460) was > 100 µM (inactive). For the same compound, the GI50 (NCI-H522) was > 100 µM (inactive), the GI50 (NCI/ADR-RES) was > 100 µM (inactive) and the GI50 (OVCAR-4) was > 100 µM (inactive). The GI50 (PC-3) was 27.2 µM (inactive), the GI50 (SF-295) was > 100 µM (inactive) and the GI50 (SK-MEL-2) was 3.49 µM (inactive). For the same compound, the GI50 (SNB-19) was > 100 µM (inactive).
`N#Cc1cnn2cc[nH]c12` was tested, and the GI50 (786-0) was > 100 µM (inactive), the GI50 (A498) was > 100 µM (inactive) and the GI50 (BT-549) was > 100 µM (inactive). For the same compound, the GI50 (EKVX) was > 100 µM (inactive), the GI50 (HCT-116) was > 100 µM (inactive) and the GI50 (HOP-62) was > 100 µM (inactive). For the same compound, the GI50 (K562) was > 100 µM (inactive), the GI50 (KM12) was > 100 µM (inactive) and the GI50 (MCF7) was > 100 µM (inactive). The GI50 (NCI-H460) was > 100 µM (inactive), the GI50 (NCI-H522) was > 100 µM (inactive) and the GI50 (NCI/ADR-RES) was > 100 µM (inactive). The GI50 (OVCAR-4) was > 100 µM (inactive), the GI50 (PC-3) was > 100 µM (inactive) and the GI50 (SF-295) was > 100 µM (inactive). The GI50 (SK-MEL-2) was > 100 µM (inactive) and the GI50 (SNB-19) was > 100 µM (inactive).
In the case of `O=Cc1ccc(OC[C@H]2COC(=O)N2)cc1`, the GI50 (786-0) is reported as > 100 µM (inactive), the GI50 (BT-549) is reported as > 100 µM (inactive) and the GI50 (EKVX) is reported as > 100 µM (inactive). For the same compound, the GI50 (HCT-116) was > 100 µM (inactive), the GI50 (HOP-62) was > 100 µM (inactive) and the GI50 (K562) was > 100 µM (inactive). The GI50 (KM12) was 37.8 µM (inactive), the GI50 (LOX IMVI) was > 100 µM (inactive) and the GI50 (MCF7) was > 100 µM (inactive). The GI50 (Malme-3M) was > 100 µM (inactive), the GI50 (NCI-H460) was > 100 µM (inactive) and the GI50 (NCI-H522) was 52.4 µM (inactive). The GI50 (NCI/ADR-RES) was > 100 µM (inactive), the GI50 (OVCAR-4) was > 100 µM (inactive) and the GI50 (PC-3) was > 100 µM (inactive). The GI50 (SF-295) was > 100 µM (inactive), the GI50 (SK-MEL-2) was > 100 µM (inactive) and the GI50 (SNB-19) was > 100 µM (inactive).
For `Cc1ccnc(NC(=S)Nc2cccc(Cl)c2)c1`, the GI50 (786-0) was > 100 µM (inactive), the GI50 (A498) was > 100 µM (inactive) and the GI50 (BT-549) was > 100 µM (inactive). The GI50 (EKVX) was 12.4 µM (inactive), the GI50 (HCT-116) was > 100 µM (inactive) and the GI50 (HOP-62) was 78.9 µM (inactive). The GI50 (K562) was > 100 µM (inactive), the GI50 (KM12) was > 100 µM (inactive) and the GI50 (LOX IMVI) was > 100 µM (inactive). For the same compound, the GI50 (MCF7) was > 100 µM (inactive), the GI50 (NCI-H460) was > 100 µM (inactive) and the GI50 (NCI-H522) was 0.02 µM (active). The GI50 (NCI/ADR-RES) was > 100 µM (inactive), the GI50 (OVCAR-4) was > 100 µM (inactive) and the GI50 (PC-3) was > 100 µM (inactive). The GI50 (SF-295) was > 100 µM (inactive), the GI50 (SK-MEL-2) was > 100 µM (inactive) and the GI50 (SNB-19) was > 100 µM (inactive).
In the case of `CS/C(Nc1ccccc1)=C1\C(=O)N(c2ccccc2)N=C1C`, the GI50 (786-0) is reported as > 100 µM (inactive), the GI50 (A498) is reported as 95.7 µM (inactive) and the GI50 (BT-549) is reported as > 100 µM (inactive). The GI50 (EKVX) was > 100 µM (inactive), the GI50 (HCT-116) was > 100 µM (inactive) and the GI50 (K562) was > 100 µM (inactive). For the same compound, the GI50 (KM12) was > 100 µM (inactive), the GI50 (LOX IMVI) was > 100 µM (inactive) and the GI50 (MCF7) was > 100 µM (inactive). For the same compound, the GI50 (Malme-3M) was > 100 µM (inactive), the GI50 (NCI-H460) was > 100 µM (inactive) and the GI50 (NCI-H522) was 35.1 µM (inactive). For the same compound, the GI50 (NCI/ADR-RES) was > 100 µM (inactive), the GI50 (OVCAR-4) was > 100 µM (inactive) and the GI50 (PC-3) was > 100 µM (inactive). The GI50 (SK-MEL-2) was > 100 µM (inactive) and the GI50 (SNB-19) was > 100 µM (inactive).
